The subject of data set [1] is A2780s cells (ovarian cancer). Put plainly: Cell proliferation inhibition, A2780s (MTT). Format: cell-based. The settings on record: Homo sapiens, 96 h incubation, read-out: Proliferation IC50, Ovarian cancer A2780s. Here is the method:
(§1) The tumor cell lines are purchased from American Type Culture Collection (ATCC) and cultivated to the status of logarithmic growth as per the cultural method recommended by ATCC. The cells in logarithmic phase are spread on a 96 well plate as per 2000-3000/well; as for anchorage-dependent cells, the compound should be added in the test wells at certain concentration for incubation for 96 h after cell adherence. Determining cell proliferation activities with method MTT for tumor cells representing solid tumor model and with method cck-8 for tumor cells representing hematologic tumor model, and analyzing the result data with the software GraphPad Prism.
(§2) Calculating the value of IC50 as per the formula: Y=background data+(top data−background data)/(1+10^((Log IC50−X)*rate of curve)). Where, Y refers to the inhibition ratio (%) and X refers to the compound concentration.

Data set [2] deals with hct116 cells (colon cancer). Kind of data set: Cell proliferation inhibition, hct116 (MTT). The settings on record: Homo sapiens, HCT-116; 96 h incubation; read-out: Proliferation IC50, Colon cancer hct116. It is filed as cell-based. On the procedure:
as §1, §2

Data set [3] concerns the target T1, HDAC1 (Homo sapiens, UniProt Q13547).
T1 construct: purchased BPS Bioscience
Put plainly: In vitro HDAC1 enzymatic activity inhibition (Lys-Ac-AMC substrate). Format: biochemical. The gist of the method:
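Fluorogenic Lys-Ac-AMC deacetylation with trypsin development in modified Tris buffer pH 7.0; compound preincubated with enzyme 15 min at ambient temperature before substrate addition. Final HDAC1 6 nM, trypsin 0.05 μM, Ac-peptide 8 μM. IC50 from four-parameter fit of % inhibition versus concentration.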

Data set [4] deals with T2, PI3Kα (Homo sapiens, UniProt P42336).
T2 construct: purchased Invitrogen PV4788
Kind of data set: PI3Kα activity inhibition (Kinase-Glo). Format: biochemical. Particulars: Table 1, graded; read-out: PI3Kα IC50. Put shortly:
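Kinase-Glo luminescence read-out of remaining ATP after PI3K reaction with PIP2 and ATP substrates in 50 mM HEPES pH 7.5, 3 mM MgCl2, 1 mM EGTA, 100 mM NaCl, 0.03% CHAPS, 2 mM DTT. Incubated at ambient temperature, 1 h for PI3Kα, 2 h for PI3Kδ. IC50 from four-parameter fit of % inhibition versus concentration.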

In data set [5] the test system is MV4-11 cells (acute myeloid leukemia). Kind of data set: Cell proliferation inhibition, MV4-11 (cck-8). It is filed as cell-based. Particulars: Homo sapiens, 96 h incubation, read-out: Proliferation IC50, Acute myeloid leukemia MV4-11. On the procedure:
as §1, §2

In data set [6] the test system is human breast cancer MDA-MB-231 subcutaneous tumor. Put plainly: Subcutaneous tumor model, human breast cancer MDA-MB-231. The settings on record: 30 mg/kg, once per 7 days, intraperitoneal. On the procedure: Cell MM1S is cultured in RPMI1640 medium (HyClone) which contains 10% fetal calf serum (Hohhot Caoyuan Lvye Bioengineering Material Co., Ltd.) and 100 U/mL penicillin and streptomycin (Beyotime).
3) Inoculation, grouping and treatment: collecting cells in logarithmic phase under aseptic conditions and counting; diluting the single cell suspension with the medium containing neither fetal calf serum nor antibiotics to 1×10^7-8 cell/mL for standby. Mixing the cell suspension; injecting 100 μL of cell suspension (5×10^6-2×10^7 cells) subcutaneously with a 1 mL injector on the right side of the back of animals. Weeding out the animals with oversized and undersized tumor when the tumor grows to an average volume of about 120 mm^3 and grouping the qualified animals for treatment and drug administration. Refer to Table 7 for each grouping model and drug administration frequency. Measuring the weight of each model per 2 days and measuring the length and width of the tumor with a vernier caliper; killing the tested animals through cervical dislocation and peeling off their tumors for weight measuring and photographing. Then calculating the tumor inhibition ratio (%) and evaluating the inhibition intensity to tumor with such tumor inhibition ratio.

Data set [7] deals with human breast cancer MCF-7 subcutaneous tumor. Kind of data set: Subcutaneous tumor model, human breast cancer MCF-7. The settings on record: 30 mg/kg, once per 7 days, intraperitoneal.
Setting [8] is: Table 1, graded, read-out: HDAC1 IC50.

Like-named read-outs stand apart in the source and are kept apart here. Some results are limits rather than exact numbers.

T2 sequence (P42336 whole entry, species assumed): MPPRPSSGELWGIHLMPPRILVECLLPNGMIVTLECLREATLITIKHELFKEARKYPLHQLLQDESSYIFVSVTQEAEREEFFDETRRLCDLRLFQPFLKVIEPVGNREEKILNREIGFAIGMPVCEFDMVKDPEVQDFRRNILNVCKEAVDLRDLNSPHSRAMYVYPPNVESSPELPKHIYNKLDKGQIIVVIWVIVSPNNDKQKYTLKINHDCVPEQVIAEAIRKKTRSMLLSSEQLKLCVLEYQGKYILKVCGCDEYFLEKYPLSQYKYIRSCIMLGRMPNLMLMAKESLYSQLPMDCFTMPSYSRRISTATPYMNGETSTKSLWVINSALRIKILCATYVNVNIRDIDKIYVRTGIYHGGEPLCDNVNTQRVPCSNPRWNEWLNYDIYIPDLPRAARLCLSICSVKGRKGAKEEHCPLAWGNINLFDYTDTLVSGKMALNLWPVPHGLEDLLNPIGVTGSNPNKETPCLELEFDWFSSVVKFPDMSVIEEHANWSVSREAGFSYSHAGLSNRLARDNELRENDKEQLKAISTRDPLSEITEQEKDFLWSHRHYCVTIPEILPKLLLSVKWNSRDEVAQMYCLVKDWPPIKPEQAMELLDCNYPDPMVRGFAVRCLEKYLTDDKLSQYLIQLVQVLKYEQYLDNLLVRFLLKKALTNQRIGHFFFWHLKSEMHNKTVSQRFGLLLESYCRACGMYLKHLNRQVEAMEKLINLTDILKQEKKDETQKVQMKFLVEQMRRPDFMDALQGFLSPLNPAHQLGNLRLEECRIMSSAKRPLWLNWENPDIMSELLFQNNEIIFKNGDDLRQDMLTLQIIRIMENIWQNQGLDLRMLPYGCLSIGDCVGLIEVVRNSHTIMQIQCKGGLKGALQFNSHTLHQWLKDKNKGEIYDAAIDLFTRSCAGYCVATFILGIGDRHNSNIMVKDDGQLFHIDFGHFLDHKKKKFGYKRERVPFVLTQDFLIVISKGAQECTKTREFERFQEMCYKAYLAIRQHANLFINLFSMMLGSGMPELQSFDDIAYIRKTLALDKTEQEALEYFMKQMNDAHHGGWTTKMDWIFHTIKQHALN
T2 sequence (P27986 whole entry partner, species assumed): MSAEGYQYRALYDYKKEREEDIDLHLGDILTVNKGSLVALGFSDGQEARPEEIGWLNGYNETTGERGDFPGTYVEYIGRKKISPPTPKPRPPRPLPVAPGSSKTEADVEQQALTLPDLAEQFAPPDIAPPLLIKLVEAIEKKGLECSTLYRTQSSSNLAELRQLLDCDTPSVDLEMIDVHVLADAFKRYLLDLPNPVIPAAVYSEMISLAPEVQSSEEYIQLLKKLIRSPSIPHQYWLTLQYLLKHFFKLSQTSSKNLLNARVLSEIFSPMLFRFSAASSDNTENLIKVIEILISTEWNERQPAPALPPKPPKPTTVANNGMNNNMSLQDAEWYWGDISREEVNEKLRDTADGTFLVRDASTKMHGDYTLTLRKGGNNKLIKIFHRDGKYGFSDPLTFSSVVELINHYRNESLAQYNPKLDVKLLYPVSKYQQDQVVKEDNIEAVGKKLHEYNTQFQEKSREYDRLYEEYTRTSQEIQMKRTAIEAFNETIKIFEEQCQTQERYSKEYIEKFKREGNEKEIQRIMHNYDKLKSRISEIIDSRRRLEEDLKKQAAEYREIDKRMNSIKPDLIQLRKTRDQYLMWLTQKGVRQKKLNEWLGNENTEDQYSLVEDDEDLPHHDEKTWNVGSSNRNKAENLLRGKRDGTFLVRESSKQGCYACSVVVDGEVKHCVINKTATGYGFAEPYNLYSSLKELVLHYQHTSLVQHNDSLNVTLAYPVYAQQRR
T1 sequence (Q13547 whole entry, species assumed): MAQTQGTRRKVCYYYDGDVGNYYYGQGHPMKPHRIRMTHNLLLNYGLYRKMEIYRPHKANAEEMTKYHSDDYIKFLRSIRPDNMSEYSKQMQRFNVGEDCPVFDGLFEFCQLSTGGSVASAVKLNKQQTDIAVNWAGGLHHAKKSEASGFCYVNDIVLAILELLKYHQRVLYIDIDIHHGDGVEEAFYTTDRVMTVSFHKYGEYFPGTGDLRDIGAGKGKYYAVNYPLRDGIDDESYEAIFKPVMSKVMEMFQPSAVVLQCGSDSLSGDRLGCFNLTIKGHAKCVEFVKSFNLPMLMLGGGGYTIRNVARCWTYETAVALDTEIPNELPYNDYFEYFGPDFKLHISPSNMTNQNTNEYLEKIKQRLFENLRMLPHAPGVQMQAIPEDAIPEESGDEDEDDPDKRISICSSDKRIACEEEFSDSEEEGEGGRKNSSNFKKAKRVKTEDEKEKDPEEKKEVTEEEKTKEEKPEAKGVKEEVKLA

As for `CN(Cc1nc2c(N3CCOCC3)nc(-c3ccc(Cl)c(C(F)(F)F)c3)nc2n1C)c1ncc(C(=O)NO)cn1` [CLJ-54, 2-(((2-(-4-chlorine-3-trifluoromethylphenyl)-9-methyl-6-morpholine-9H-purine-8-yl))methyl(methyl)amino)-N-hydroxyl pyrimidine-5-formamide], the IC50 in data set [1] was 100 to 1000 nM; in data set [2] it was 100 to 1000 nM; in data set [3] (setting [8]), < 100 nM; in data set [4], > 10000 nM; in data set [5] it was 100 to 1000 nM.

Take `CN(Cc1nc2c(N3CCOCC3)nc(-c3ccc(C(F)(F)F)cc3)nc2n1C)c1ncc(C(=O)NO)cn1` [CLJ-55]: the IC50 is 10 to 100 nM in data set [1]; 10 to 100 nM in data set [2]; < 100 nM in data set [3] (setting [8]); > 10000 nM in data set [4]; 0.1 to 10 nM in data set [5].

Take `CN(Cc1nc2c(N3CCOCC3)nc(-c3cc(C(F)(F)F)cc(C(F)(F)F)c3)nc2n1C)c1ncc(C(=O)NO)cn1` [CLJ-56]: the IC50 in data set [1] was 100 to 1000 nM; in data set [2], 100 to 1000 nM; in data set [3] (setting [8]), < 100 nM; in data set [4], > 10000 nM; in data set [5], 10 to 100 nM.

Regarding `CN(Cc1nc2c(N3CCOCC3)nc(-c3ccc(S(C)(=O)=O)cc3)nc2n1C)c1ncc(C(=O)NO)cn1` [CLJ-57, 2-(((2-(4-methylsulphonylphenyl)-9-methyl-6-morpholine-9H-purine-8-yl))methyl(methyl)amino)-N-hydroxyl pyrimidine-5-formamide], the IC50 in data set [1] is 0.1 to 10 nM; in data set [2], 10 to 100 nM; in data set [3] (setting [8]) it was < 1 nM; in data set [3] (read-out: inhibition value IC50 to the activity of HDAC1), < 1 nM; in data set [4], > 10000 nM; in data set [5], 0.1 to 10 nM.

On to `Cc1ccc(-c2nc(N3CCOCC3)c3nc(CN(C)c4ncc(C(=O)NO)cn4)n(C)c3n2)cc1` [CLJ-60, 2-(((2-(p-methylbenzene)-9-methyl-6-morpholine-9H-purine-8-yl))methyl(methyl)amino)-N-hydroxyl pyrimidine-5-formamide], for which the IC50 in data set [1] is 0.1 to 10 nM; in data set [2] it was 10 to 100 nM; in data set [3] (setting [8]), < 100 nM; in data set [4] it was > 10000 nM; in data set [5] it was 0.1 to 10 nM.

With `CN(Cc1nc2c(N3CCOCC3)nc(Cl)nc2n1C)c1ncc(C(=O)NO)cn1` [CLJ-68], the IC50 in data set [1] is 10 to 100 nM; in data set [2] it was 10 to 100 nM; in data set [3] (setting [8]) it was < 100 nM; in data set [4] it was > 10000 nM; in data set [5] it was 10 to 100 nM.

`CC(=O)O[C@H]1C(=O)[C@@]2(C)[C@H]([C@H](OC(=O)c3ccccc3)[C@]3(O)C[C@H](OC(=O)[C@H](O)[C@@H](NC(=O)c4ccccc4)c4ccccc4)C(C)=C1C3(C)C)[C@]1(OC(C)=O)CO[C@@H]1C[C@@H]2O` [Paclitaxel]: in data set [6], the Death is listed as 0/6 and the “Inhibitory rate (%)” value is reported as 59.19%. Further, in data set [7], the Death is recorded as 0/6 and the “Inhibitory rate (%)” value worked out at 77.73%.

The values are drawn from patent US10227347B2, “Purinyl-N-hydroxyl pyrimidine formamide derivative, preparation methods and uses thereof” (Guizhou Bailing Group Pharmaceutical CO., LTD., priority 2015, dated 2019).
